According to PubChem BioAssay AID2060607 (Molecular Pharmacology Branch, DTP, NCI, 2025):

System: 876862-298-R-J1-PDC complex spheroids, viability % test/control
Assay: Anticancer human tumor 876862-298-R-J1-PDC patient-derived endometrial carcinoma cell line growth inhibition [CLK]
Conditions: for IC50: curve of first compound; for viability, T/C: stronger effect = lower value
Outline: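 Multi-cell-type spheroids combined patient-derived tumor cells with HUVEC endothelial cells and human mesenchymal stem cells. Paired agents were dosed in half-log steps down from about clinical Cmax, or from 10 microM where Cmax was unknown.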
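Note: spheroids exposed to drugs for 7 days before readout.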
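Throughout, for viability, T/C: 100% = DMSO vehicle control wells.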

C=CC(=O)Nc1cc(Nc2nccc(-c3cn(C)c4ccccc34)n2)c(OC)cc1N(C)CCN(C)C + CN1CCN(c2cc(C(=O)Nc3cc4cc(-c5cnn(C)c5)ccc4cn3)ccn2)CC1
IC50 (second compound 0.0316 µM): 262 nM | IC50 (second compound 0.1 µM): < 0.949 nM | IC50 (second compound 0.316 µM): < 0.949 nM | IC50 (second compound 1 µM): < 0.949 nM | IC50 (second compound 3.16 µM): < 0.949 nM | IC50 (second compound 10 µM): < 0.949 nM | viability, T/C (second compound 0.0316 µM, first compound 0.000949 µM): 90% | viability, T/C (second compound 0.0316 µM, first compound 0.003 µM): 92.8% | viability, T/C (second compound 0.0316 µM, first compound 0.00949 µM): 90% | viability, T/C (second compound 0.0316 µM, first compound 0.03 µM): 82.7% | viability, T/C (second compound 0.0316 µM, first compound 0.0949 µM): 67.6% | viability, T/C (second compound 0.0316 µM, first compound 0.3 µM): 47.6% | viability, T/C (second compound 0.1 µM, first compound 0.000949 µM): 51.6% | viability, T/C (second compound 0.1 µM, first compound 0.003 µM): 45.1% | viability, T/C (second compound 0.1 µM, first compound 0.00949 µM): 43.7% | viability, T/C (second compound 0.1 µM, first compound 0.03 µM): 48.8% | viability, T/C (second compound 0.1 µM, first compound 0.0949 µM): 43.3% | viability, T/C (second compound 0.1 µM, first compound 0.3 µM): 30.7% | viability, T/C (second compound 0.316 µM, first compound 0.000949 µM): 3.41% | viability, T/C (second compound 0.316 µM, first compound 0.003 µM): 4.12% | viability, T/C (second compound 0.316 µM, first compound 0.00949 µM): 3.52% | viability, T/C (second compound 0.316 µM, first compound 0.03 µM): 4.04% | viability, T/C (second compound 0.316 µM, first compound 0.0949 µM): 4.57% | viability, T/C (second compound 0.316 µM, first compound 0.3 µM): 3.03% | viability, T/C (second compound 1 µM, first compound 0.000949 µM): 0.75% | viability, T/C (second compound 1 µM, first compound 0.003 µM): 1.64% | viability, T/C (second compound 1 µM, first compound 0.00949 µM): 2.15% | viability, T/C (second compound 1 µM, first compound 0.03 µM): 1.03% | viability, T/C (second compound 1 µM, first compound 0.0949 µM): 0.6% | viability, T/C (second compound 1 µM, first compound 0.3 µM): 2.34% | viability, T/C (second compound 3.16 µM, first compound 0.000949 µM): 1.02% | viability, T/C (second compound 3.16 µM, first compound 0.003 µM): 1.18% | viability, T/C (second compound 3.16 µM, first compound 0.00949 µM): 1.66% | viability, T/C (second compound 3.16 µM, first compound 0.03 µM): 1.01% | viability, T/C (second compound 3.16 µM, first compound 0.0949 µM): 1.3% | viability, T/C (second compound 3.16 µM, first compound 0.3 µM): 1.16% | viability, T/C (second compound 10 µM, first compound 0.000949 µM): 0.77% | viability, T/C (second compound 10 µM, first compound 0.003 µM): 2.03% | viability, T/C (second compound 10 µM, first compound 0.00949 µM): 2.52% | viability, T/C (second compound 10 µM, first compound 0.03 µM): 1.87% | viability, T/C (second compound 10 µM, first compound 0.0949 µM): 2.21% | viability, T/C (second compound 10 µM, first compound 0.3 µM): 1.88%

O=c1[nH]cc(F)c(=O)[nH]1 + CN1CCN(c2cc(C(=O)Nc3cc4cc(-c5cnn(C)c5)ccc4cn3)ccn2)CC1
IC50 (second compound 0.0316 µM): 8770 nM | IC50 (second compound 0.1 µM): < 31.6 nM | IC50 (second compound 0.316 µM): < 31.6 nM | IC50 (second compound 1 µM): < 31.6 nM | IC50 (second compound 3.16 µM): < 31.6 nM | IC50 (second compound 10 µM): < 31.6 nM | viability, T/C (second compound 0.0316 µM, first compound 0.0316 µM): 94.5% | viability, T/C (second compound 0.0316 µM, first compound 0.1 µM): 89.6% | viability, T/C (second compound 0.0316 µM, first compound 0.316 µM): 88.8% | viability, T/C (second compound 0.0316 µM, first compound 1 µM): 83% | viability, T/C (second compound 0.0316 µM, first compound 3.16 µM): 55.9% | viability, T/C (second compound 0.0316 µM, first compound 10 µM): 49.4% | viability, T/C (second compound 0.1 µM, first compound 0.0316 µM): 41.8% | viability, T/C (second compound 0.1 µM, first compound 0.1 µM): 52.2% | viability, T/C (second compound 0.1 µM, first compound 0.316 µM): 47.8% | viability, T/C (second compound 0.1 µM, first compound 1 µM): 41.9% | viability, T/C (second compound 0.1 µM, first compound 3.16 µM): 31.5% | viability, T/C (second compound 0.1 µM, first compound 10 µM): 29.9% | viability, T/C (second compound 0.316 µM, first compound 0.0316 µM): 3.11% | viability, T/C (second compound 0.316 µM, first compound 0.1 µM): 2.75% | viability, T/C (second compound 0.316 µM, first compound 0.316 µM): 3.62% | viability, T/C (second compound 0.316 µM, first compound 1 µM): 2.92% | viability, T/C (second compound 0.316 µM, first compound 3.16 µM): 2.73% | viability, T/C (second compound 0.316 µM, first compound 10 µM): 2.79% | viability, T/C (second compound 1 µM, first compound 0.0316 µM): 0.65% | viability, T/C (second compound 1 µM, first compound 0.1 µM): 0.89% | viability, T/C (second compound 1 µM, first compound 0.316 µM): 0.91% | viability, T/C (second compound 1 µM, first compound 1 µM): 0.83% | viability, T/C (second compound 1 µM, first compound 3.16 µM): 0.68% | viability, T/C (second compound 1 µM, first compound 10 µM): 0.7% | viability, T/C (second compound 3.16 µM, first compound 0.0316 µM): 0.68% | viability, T/C (second compound 3.16 µM, first compound 0.1 µM): 1.36% | viability, T/C (second compound 3.16 µM, first compound 0.316 µM): 1.24% | viability, T/C (second compound 3.16 µM, first compound 1 µM): 0.98% | viability, T/C (second compound 3.16 µM, first compound 3.16 µM): 1.14% | viability, T/C (second compound 3.16 µM, first compound 10 µM): 1.44% | viability, T/C (second compound 10 µM, first compound 0.0316 µM): 0.57% | viability, T/C (second compound 10 µM, first compound 0.1 µM): 0.53% | viability, T/C (second compound 10 µM, first compound 0.316 µM): 0.54% | viability, T/C (second compound 10 µM, first compound 1 µM): 0.77% | viability, T/C (second compound 10 µM, first compound 3.16 µM): 0.83% | viability, T/C (second compound 10 µM, first compound 10 µM): 0.73%
